Like-named read-outs stand apart in the source and are kept apart here.
Tests used:
[1] = tested on: mitochondrial membrane potential (ΔΨm) in SHSY-5Y neuroblastoma cells; assay: FRET-based ΔΨm assay (NAO/TMRE), compound alone and Ca2+-induced ΔΨm collapse; assay type: cell-based; details: concentration not given; for B-C response, typical values: reference agents alone; for % Ca^2+ response score (comparison agents): reference agents
[2] = tested on: mitochondrial membrane potential (ΔΨm) in SHSY-5Y neuroblastoma cells; details: FRET-based ΔΨm assay, reference agent, cited from earlier work
[3] = tested on: caspase-3 activation in SHSY-5Y cells; assay: Caspase-3 activation induced by ethacrynic acid plus thapsigargin; assay type: cell-based; details: positive control, 24 hr ethacrynic acid/thapsigargin stress
Description: The potential ability of test compound Nos. 1-10 individually to moderate caspase activation was therefore examined using SHSY-5Y cells, in accordance with the Dykens assay.
In the Dykens assay method, caspase activation is induced by 24 hr exposure to a combined stress of ethacrynic acid (25 to derivatize glutathione and induce oxidative stress, and thapsigargin (1 μM), to induce a chronic increase in cytosolic Ca^2+. Caspase activity is determined using a fluorogenic substrate, with rates normalized to cell number; and is expressed as % response of controls on every plate exposed to ethacrynate and thapsigargen in the absence of compound. Compound Nos. 1-10 at 10 μM were separately introduced for reaction at the same time as the ethycrynic acid/thapsigargin addition, and were present throughout the 24 hr incubation period.

[4] = humans; cited from earlier work
[5] = tested on: human tumor cell lines FaDu and Jurkat, Ki-v-Ras-transformed Balb/c-3T3 murine mesenchymal cell line; details: cited from earlier work
[6] = read-out: EC50, prevent Ca^2+ uptake via uniporter inhibition

## CO[C@H](C/C=C\C=C\CC/C=C/C[C@H](C)/C=C/C(=C\C(=O)O)CC(=O)O)/C(C)=C\C=C(/C)C(=O)O [bongkrekate]
[1]
  B-C response, typical values: ~600 RFU
  % Ca^2+ response score (comparison agents): 44%
[2]; read-out: EC50, inhibit Ca^2+-mediated ΔΨm loss
  EC50: 77 nM

## RU-360
[2]; [6]
  EC50: 12 nM

## N.N.N.N.N.N.N.N.N.N.N.N.N.N.[Cl-].[Cl-].[Cl-].[Cl-].[Cl-].[Cl-].[O-2].[O-2].[Ru+3].[Ru+3].[Ru+4] [ruthenium red]
[1]
  % Ca^2+ response score (comparison agents): 9%
[2]; [6]
  EC50: 270 nM

## IGF-1: positive control in caspase-3 activation assay
[3]
  Reduction of caspase activity: 64%

## Nc1ncnc2c1ncn2[C@@H]1O[C@H](COP(=O)(O)OP(=O)(O)O)[C@@H](O)[C@H]1O [ADP]
[2]; read-out: EC50, dissipate ΔΨm under physiological circumstances
  EC50: 122000 nM

## O=C(O)CCCCC1CCSS1 (stereo not drawn) [alpha-lipoic acid, 1,2-dithiolane-3-pentanoic acid]
[4]
  plasma half-life: less than 1 hour
  time to excretion, mainly in the urine: ≤ 24 h
[5]
  Apoptosis in tumor cell lines: induces apoptosis

## N#CC(C#N)=NNc1cccc(Cl)c1 [CCCP]
[1]
  B-C response, typical values: ~−1800 RFU
[2]; read-out: EC50, collapse ΔΨm
  EC50: 2000 nM

## CC[C@H]1/C=C/C=C/C[C@@H](C)[C@H](O)[C@@](C)(O)C(=O)[C@@H](C)[C@H](O)[C@@H](C)C(=O)[C@@H](C)[C@H](O)[C@@H](C)/C=C/C(=O)O[C@@H]2[C@H](C)[C@H](CC1)O[C@]1(CC[C@H](C)[C@H](C[C@@H](C)O)O1)[C@H]2C [oligomycin]
[2]; read-out: EC50, hyperpolarize ΔΨm
  EC50: 26 nM

Source: patent publication US8741853B2, “Mitochondria-targeting antioxidant therapeutics” (priority 2007, dated 2014)
